Measured values taken from paper doi:10.1101/2021.10.04.463106, “A high throughput screening assay for inhibitors of SARS-CoV-2 pseudotyped particle entry” (bioRxiv, 2021).
Counter-ions that a name gives are not always drawn.

What was measured:
VSV-G PP = assay type: cell-based, vesicular stomatitis virus
[1] = tested on: SARS-CoV-2-S PP (Wuhan-Hu-1 spike); experiment: microbe, parasite or virus in culture; assay type: cell-based; details: Severe acute respiratory syndrome coronavirus 2, read-out: PP EC50
[2] = tested on: SARS-CoV-2 (USA_WA1/2020); assay type: cell-based
[3] = ATP content cytotoxicity assay; details: human, HEK293-ACE2 cells

Row | SMILES | potency in the VSV-G PP entry counter assay compared with SARS-CoV-2-S PP entry (VSV-G PP) | EC50 [1] | protective effect against cell death caused by the virus (CPE rescue) [2] | EC50 at 48 h [3]
1 | CC(C)OC(=O)OCOP(=O)(CO[C@H](C)Cn1cnc2c(N)ncnc21)OCOC(=O)OC(C)C [tenofovir disoproxil fumarate] | same potency | – | – | –
2 | Oc1ccc(Cl)cc1Cc1cc(Cl)ccc1O [Dichlorophen, dichlorophen] | – | 0.03 µM | not confirmed | –
3 | CCCC[C@@H](C=O)NC(=O)[C@H](CC(C)C)NC(=O)OCc1ccccc1 [Calpeptin, calpeptin] | – | 1.2 µM | – | > 50 µM
4 | CCOC(=O)[C@H]1O[C@@H]1C(=O)N[C@@H](CC(C)C)C(=O)NCCC(C)C [Aloxistatin, aloxistatin] | – | 0.19 µM | – | > 50 µM
5 | COc1cc(N2CCC(N3CCN(C)CC3)CC2)ccc1Nc1ncc(Cl)c(Nc2ccccc2P(C)(C)=O)n1 [Brigatinib, brigatinib] | – | 4.3 µM | – | 0.67 µM
6 | Cc1cccc(/C=N/Nc2cc(N3CCOCC3)nc(OCCc3ccccn3)n2)c1 [Apilimod, apilimod] | – | 0.12 µM | – | 9.31 µM
7 | C[C@@H]1CCO[C@H]2Cn3cc(C(=O)NCc4ccc(F)cc4F)c(=O)c(O)c3C(=O)N12 [dolutegravir] | same potency | – | – | –
8 | Nc1ncnc2c1ncn2CCOCP(=O)(O)O [adefovir] | same potency | – | – | –
9 | COc1cc2c(cc1Cc1cccc(Cl)c1F)c(=O)c(C(=O)O)cn2[C@H](CO)C(C)C [elvitegravir] | same potency | – | – | –
